Test results: paper PMC13303826, “Nicotinonitrile based dual inhibitors of tubulin and topoisomerase II exhibit potent anticancer activity” (Scientific Reports, 2026)

How the values were obtained:
[1] = system: HepG2 cells; assay: LDH release cytotoxicity assay, HepG2; type: cell-based; settings: Homo sapiens, 48 h, mean ± SD, read-out: In vitro cytotoxicity IC50 µM ± SD, HepG2
Description: (§1) HepG2 (Human liver carcinoma), HCT116 (human colorectal carcinoma), MCF7 (human breast adenocarcinoma), and the normal human skin fibroblast (BJ-1) cell lines were purchased from the american type culture collection (Rockville, MD, USA) and maintained in RPMI-1640 medium which was supplemented with 10% heat-inactivated FBS, 100U/ml penicillin and 100U/ml streptomycin. The cells were grown at 37 °C in a humidified atmosphere of 5% CO2. All experiments were conducted thrice in triplicate (n = 3). All the values were represented as means ± SD. Significant differences between the means of parameters as well as IC50s were determined by probit analysis using SPSS software program (SPSS Inc., Chicago, IL).
(§2) To determine the effect of each synthesized compound on membrane permeability in HepG2, MCF-7 and HCT116 cancer cell lines as well as BJ-1 normal cell line, a lactate dehydrogenase (LDH) release assay was used[29]–[33]. The cells were seeded in 24-well culture plates at a density of 1 × 10^4 cells/well in 500 µL volume and allowed to grow for 18 h before treatment. After treatment with a series of different concentrations of each compound or DOX (positive control), the plates were incubated for 48 h. Then, the supernatant (40 µL) was transferred to a new 96 well to determine LDH release and 6% triton X-100 (40 µL) was added to the original plate for determination of total LDH. An aliquot of 0.1 M potassium phosphate buffer (100 µL, pH 7.5) containing 4.6 mM pyruvic acid was mixed to the supernatant using repeated pipetting. Then, 0.1 M potassium phosphate buffer (100 µL, pH 7.5) containing 0.4 mg/mL reduced β-NADH was added to the wells. The kinetic changes were read for 1 min using ELISA microplate reader in absorbance at wavelength 340 nm. This procedure was repeated with 40 µL of the total cell lysate to determine total LDH. The percentage of LDH release was determined by dividing the LDH released into the media by the total LDH following cell lysis in the same well. The cell Passage numbers for MCF 7 = P13, Hep G2 = P15, HCT 116 = P 9.
(§3) All experiments were conducted in triplicate (n = 3). All the values were represented as mean ± SD. Significant differences between the means of parameters as well as IC50s were determined by probit analysis using SPSS software program (SPSS Inc., Chicago, IL).

[2] = system: MCF7 cells; assay: LDH release cytotoxicity assay, MCF7; type: cell-based; settings: Homo sapiens, 48 h, mean ± SD, read-out: In vitro cytotoxicity IC50 µM ± SD, MCF7
Description: as §1, §2, §3

[3] = system: HCT116 cells; assay: LDH release cytotoxicity assay, HCT116; type: cell-based; settings: Homo sapiens, HCT-116, 48 h, mean ± SD, read-out: In vitro cytotoxicity IC50 µM ± SD, HCT116
Description: as §1, §2, §3

[4] = system: Topo II; assay: Inhibition of topoisomerase II in MCF-7 cells (TOP2B sandwich ELISA); type: cell-based, human; settings: MCF7 cells, concentration not given
Description: Mouse TOP2B/Topoisomerase II Beta ELISAKit (Sandwich ELISA) is designed for the quantitative measurement of Topo II enzyme.
This assay is based on the sandwich ELISA principle. Each well of the supplied microtiter plate has been pre-coated with a target specific capture antibody. Standards or samples are added to the wells, and the target antigen binds to the capture antibody. Unbound standard or sample is washed away. A biotin-conjugated detection antibody is then added which binds to the captured antigen. Unbound detection antibody is washed away. An avidin-horseradish peroxidase (HRP) conjugate is then added which binds to the biotin. Unbound avidin-HRP conjugate is washed away. A TMB substrate is then added which reacts with the HRP enzyme resulting in color development. A sulfuric acid stop solution is added to terminate color development reaction and then the optical density (OD) of the well is measured at a wavelength of 450 nm ± 2 nm. An OD standard curve is generated using known antigen concentrations; the OD of an unknown sample can then be compared to the standard curve to determine its antigen concentration. Each experiment was repeated two times (Table 3).

[5] = system: beta-tubulin; assay: Inhibition of tubulin polymerization in MCF-7 cells (beta-tubulin SimpleStep ELISA); type: cell-based, human; settings: MCF7 cells, concentration not given
Source text: Beta-tubulin in vitro simple step ELISA® (Enzyme-Linked Immunosorbent Assay) kit is designed for quantitative measurement of beta-tubulin protein in human cell and tissue homogenate extract samples.
The SimpleStep ELISA® employs an affinity tag labeled capture antibody and a reporter conjugated detector antibody which immunocapture the sample analyte in solution. This entire complex (capture antibody/analyte/detector antibody) is in turn immobilized via immunoaffinity of an anti-tag antibody coating the well. To perform the assay, samples or standards are added to the wells, followed by the antibody mix. After incubation, the wells are washed to remove unbound material. TMB development solution is added and during incubation is catalyzed by horseradish peroxidase (HRP), generating blue coloration. This reaction is then stopped by addition of stop solution completing any color change from blue to yellow. Signal is generated proportionally to the amount of bound analyte and the intensity is measured at 450 nm. Optionally, instead of the endpoint reading, development of TMB can be recorded kinetically at 600 nm. The concentration of beta-tubulin protein in the samples is determined by comparing the optical density (OD) of the samples to the standard curve. Each experiment was repeated two times (Table 2).

[6] = system: BJ1 normal cells; assay: LDH release cytotoxicity assay, normal skin fibroblasts BJ1; type: cell-based, human; settings: non-tumor BJ1 fibroblasts
Description: as §1, §2, §3

`COc1ccc(-c2cc(-c3cc(OC)c(OC)c(OC)c3)c(C#N)c(Cl)n2)cc1` [Compound 18, 2-Chloro-6-(4-methoxyphenyl)-4-(3,4,5-trimethoxyphenyl)nicotinonitrile] showed an IC50 [1] of 26.2 ± 2.5 µM, an IC50 [2] of 2.9 ± 0.2 µM and an IC50 [3] of 45.6 ± 4.1 µM.

In the case of `COc1ccc(-c2cc(-c3cc(OC)c(OC)c(OC)c3)c(C#N)c(Cl)n2)cc1OC` [Compound 19, 2-Chloro-6-(3,4-dimethoxyphenyl)-4-(3,4,5trimethoxyphenyl)nicotinonitrile], the IC50 [1] is reported as 24.1 ± 2.2 µM, the IC50 [2] is reported as 2.7 ± 0.2 µM and the IC50 [3] is reported as 44.1 ± 4.7 µM.

Work on `COc1cc(OC)cc(-c2cc(-c3ccc(OC)c(OC)c3)nc(Cl)c2C#N)c1` [Compound 21, 2-Chloro-6-(3,4-dimethoxyphenyl)-4-(3,5-dimethoxyphenyl)nicotinonitrile] yielded an IC50 [1] of 12.3 ± 1.5 µM, an IC50 [2] of 2.8 ± 0.2 µM and an IC50 [3] of 48.1 ± 4.2 µM.

For `COc1ccc(-c2cc(-c3cc(OC)cc(OC)c3)c(C#N)c(Cl)n2)cc1` [Compound 22, 2-Chloro-4-(3,5-dimethoxyphenyl)-6-(4-methoxyphenyl)nicotinonitrile], the “Topo II % inhibition” value [4] was 42%, the IC50 [1] was 25.3 ± 2.3 µM and the IC50 [2] was 2.6 ± 0.2 µM. The IC50 [3] was 36.8 ± 3.5 µM and the “tubulin polymerization % inhibition” value [5] was 70.9%.

Compound `COc1ccc(-c2cc(-c3ccc(OC)c(OC)c3)nc(Cl)c2C#N)cc1` [Compound 23, 2-Chloro-6-(3,4-dimethoxyphenyl)-4-(4-methoxyphenyl)nicotinonitrile] has an IC50 [1] of 29.4 ± 2.3 µM, an IC50 [2] of 2.6 ± 0.2 µM and an IC50 [3] of 49.1 ± 5.1 µM.

In the case of `COc1cc(-c2cc(-c3ccco3)c(C#N)c(Cl)n2)cc(OC)c1OC` [Compound 24, 2-Chloro-4-(furan-2-yl)-6-(3,4,5-trimethoxyphenyl)nicotinonitrile], the “Topo II % inhibition” value [4] is reported as 55.3%, the IC50 [1] is reported as 22.7 ± 2.1 µM and the IC50 [2] is reported as 2.5 ± 0.2 µM. For the same compound, the IC50 [3] was 49.3 ± 4.2 µM and the “tubulin polymerization % inhibition” value [5] was 55.4%.

Work on `COc1ccc(-c2cc(-c3cc(OC)c(OC)c(OC)c3)c(C#N)c3nnnn23)cc1OC` [Compound 27, 5-(3,4-dimethoxyphenyl)-7-(3,4,5-trimethoxyphenyl)tetrazolo[1,5-a]pyridine-8-carbonitrile] yielded an IC50 [1] of 25.5 ± 2.4 µM, an IC50 [2] of 2.5 ± 0.2 µM and an IC50 [3] of 60.1 ± 6.2 µM. For the same compound, the “tubulin polymerization % inhibition” value [5] was 49.8%.

For `COc1cc(-c2cc(-c3cc(OC)c(OC)c(OC)c3)n3nnnc3c2C#N)cc(OC)c1OC` [Compound 28, 5,7-bis(3,4,5-trimethoxyphenyl)tetrazolo[1,5-a]pyridine-8-carbonitrile], the IC50 [1] was 29.9 ± 3.1 µM, the IC50 [2] was 3 ± 0.2 µM and the IC50 [3] was 78.6 ± 5.9 µM.

`COc1cc(OC)cc(-c2cc(-c3ccc(OC)c(OC)c3)n3nnnc3c2C#N)c1` [Compound 29, 5-(3,4-dimethoxyphenyl)-7-(3,5-dimethoxyphenyl)tetrazolo[1,5-a]pyridine-8-carbonitrile] was tested, and the IC50 [1] was 27.1 ± 2.5 µM, the IC50 [2] was 3.1 ± 0.3 µM and the IC50 [3] was 55.4 ± 5.1 µM.

`COc1ccc(-c2cc(-c3cc(OC)cc(OC)c3)c(C#N)c3nnnn23)cc1` [Compound 30, 7-(3,5-dimethoxyphenyl)-5-(4-methoxyphenyl)tetrazolo[1,5-a]pyridine-8-carbonitrile] was tested, and the IC50 [1] was 27.1 ± 2.2 µM, the IC50 [2] was 3.2 ± 0.2 µM and the IC50 [3] was 40.5 ± 3.3 µM.

With `COc1ccc(-c2cc(-c3ccc(OC)c(OC)c3)n3nnnc3c2C#N)cc1` [Compound 31, 5-(3,4-dimethoxyphenyl)-7-(4-methoxyphenyl)tetrazolo[1,5-a]pyridine-8-carbonitrile] the IC50 [1] was 25.7 ± 2.4 µM, the IC50 [2] was 3.1 ± 0.3 µM and the IC50 [3] was 31 ± 2.5 µM.

`COc1cc(-c2cc(-c3ccco3)c(C)c3nnnn23)cc(OC)c1OC` [Compound 32, 7-(furan-2-yl)-8-methyl-5-(3,4,5-trimethoxyphenyl)tetrazolo[1,5-a]pyridine] was tested, and the IC50 [1] was 28.2 ± 2.5 µM, the IC50 [2] was 3 ± 0.3 µM and the IC50 [3] was 98 ± 8.6 µM.

`Cc1cc(-c2ccco2)c(C#N)c2nnnn12` [Compound 33, 7-(furan-2-yl)-5-methyltetrazolo[1,5-a]pyridine-8-carbonitrile] showed an IC50 [1] of 25.2 ± 2.5 µM, an IC50 [2] of 2.6 ± 0.2 µM and an IC50 [3] of 40.7 ± 3.9 µM. The “tubulin polymerization % inhibition” value [5] was 68.9%.

`COc1ccc(-c2cc(-c3cc(OC)c(OC)c(OC)c3)c(C#N)c(N=P(c3ccccc3)(c3ccccc3)c3ccccc3)n2)cc1` [Compound 34, 6-(4-Methoxyphenyl)-4-(3,4,5-trimethoxyphenyl)-2-((triphenyl-λ^5-phosphaneylidene)amino)-nicotinonitrile] gave an IC50 [1] of 28.4 ± 2.3 µM, an IC50 [2] of 5.1 ± 0.2 µM and an IC50 [3] of 49.9 ± 4.2 µM.

With `COc1ccc(-c2cc(-c3cc(OC)c(OC)c(OC)c3)c(C#N)c(N=P(c3ccccc3)(c3ccccc3)c3ccccc3)n2)cc1OC` [Compound 35, 6-(3,4-Dimethoxyphenyl)-4-(3,4,5-trimethoxyphenyl)-2-((triphenyl-λ^5-phosphaneylidene)-amino)nicotinonitrile] the IC50 [1] was 32.4 ± 3.1 µM, the IC50 [2] was 2.7 ± 0.1 µM and the IC50 [3] was 57.6 ± 4.1 µM. For the same compound, the “tubulin polymerization % inhibition” value [5] was 61.9%.

Compound `COc1cc(-c2cc(-c3cc(OC)c(OC)c(OC)c3)c(C#N)c(N=P(c3ccccc3)(c3ccccc3)c3ccccc3)n2)cc(OC)c1OC` [Compound 36, 4,6-Bis(3,4,5-trimethoxyphenyl)-2-((triphenyl-λ^5-phosphaneylidene)amino)nicotinonitrile] has an IC50 [1] of 25.2 ± 2.1 µM, an IC50 [2] of 3 ± 0.1 µM and an IC50 [3] of 41.7 ± 4.1 µM.

`COc1cc(OC)cc(-c2cc(-c3ccc(OC)c(OC)c3)nc(N=P(c3ccccc3)(c3ccccc3)c3ccccc3)c2C#N)c1` [Compound 37, 6-(3,4-Dimethoxyphenyl)-4-(3,5-dimethoxyphenyl)-2-((triphenyl-λ^5-phosphaneylidene)amino)-nicotinonitrile] was tested, and the “Topo II % inhibition” value [4] was 82.4%, the IC50 [1] was 29.3 ± 2.5 µM and the IC50 [2] was 2.6 ± 0.1 µM. For the same compound, the IC50 [3] was 36 ± 3.3 µM and the “tubulin polymerization % inhibition” value [5] was 74.3%.

In the case of `COc1ccc(-c2cc(-c3ccc(OC)c(OC)c3)nc(N=P(c3ccccc3)(c3ccccc3)c3ccccc3)c2C#N)cc1` [Compound 39, 6-(3,4-Dimethoxyphenyl)-4-(4-methoxyphenyl)-2-((triphenyl-λ^5-phosphaneylidene)amino)-nicotinonitrile], the “Cytotoxicity / selectivity toward BJ1 normal cells (in words)” value [6] is reported as “good selectivity”, the IC50 [1] is reported as 12.6 ± 1.1 µM and the IC50 [2] is reported as 3 ± 0.1 µM. The IC50 [3] was 32.5 ± 3.2 µM.

With `COc1cc(-c2cc(-c3ccco3)c(C#N)c(N=P(c3ccccc3)(c3ccccc3)c3ccccc3)n2)cc(OC)c1OC` [Compound 40, 4-(Furan-2-yl)-6-(3,4,5-trimethoxyphenyl)-2-((triphenyl-λ^5-phosphaneylidene)amino)nicotino-nitrile] the IC50 [1] was 27.7 ± 2.1 µM, the IC50 [2] was 5.7 ± 0.2 µM and the IC50 [3] was 55.7 ± 4.9 µM.

In the case of `COc1cccc2c1C(=O)c1c(O)c3c(c(O)c1C2=O)C[C@@](O)(C(=O)CO)C[C@@H]3O[C@H]1C[C@H](N)[C@H](O)[C@H](C)O1` [DOX, doxorubicin, reference compound], the “Topo II % inhibition” value [4] is reported as 81.6%, the IC50 [1] is reported as 2.6 ± 0.2 µM and the IC50 [2] is reported as 2.8 ± 0.3 µM. The IC50 [3] was 12.5 ± 1.5 µM.
